Patent publication US4845122A, “Anti-allergy treatment using 2-(substituted amino)-4,5-dihydro-4-oxo-3-furancarboxylic acids and derivatives thereof” (priority 1986, dated 1989)

Key:
Type in all cases: in vivo
serotonin = assay: rat dermal vascular permeability test (mediator release model), serotonin challenge; settings: 100 mg/kg
histamine [1] = assay: rat dermal vascular permeability test (mediator release model), histamine challenge; settings: 100 mg/kg, histamine 20 ug/ml intradermal
Procedure: The furanone compounds listed in Tables 1A, 1B and 2 were used for anti-allergy treatment in the rat active anaphylaxis model and/or the rat dermal vascular permeability test (mediator release model). The results are given as the percent inhibition from the control.
In the rat dermal vascular permeability test, groups of ten male rats are intraperitoneally or perorally administered either the test compound, at a dosage of 100 mg/kg of rat weight as a 0.85% solution in saline, or the positive reference standard cyproheptadine (1 mg/kg) one hour prior to an intravenous injection of 1 ml of a 0.5% solution of Evan's blue dye into naive animals. Ten minutes later the animals are challenged by intradermally injecting 0.1 ml of a solution of either serotonin (1 ug/ml), histamine (20 ug/ml) or bradykinin (10 ug/ml) into separate sites on the back. Five minutes following challenge the animals are killed, the skin retracted, and the mean diameter of the blue wheal and flare reactions are determined. The percent inhibition of the wheal reaction is calculated as the difference in diameter between the saline control and drug treated groups divided by the control diameter times 100. Statistical analysis of the data is done using the poolt program.

bradykinin = assay: rat dermal vascular permeability test (mediator release model), bradykinin challenge; settings: 100 mg/kg
edema = assay: rat active anaphylaxis model (paw edema after bovine serum albumin challenge); settings: 100 mg/kg intraperitoneally; for Active Anaphylaxis % Inhibition: 1 h before challenge, paw volume 90 min post challenge
Procedure: In the rat active anaphylaxis model, groups consisting of 15-20 male rats are intraperitoneally sensitized on day zero with 500 ug of bovine serum albumin-absorbed alum admixed with 2×10^10 killed Bordatella pertussis vaccine organisms. […] The paw volume is measured using a mercury plethysmometer prior to drug administration and 90 minutes post antigenic challenge. The percent inhibition of edema is calculated as the difference in volume between the control and drug treated groups divided by the control volume times 100. The positive control drug, theophylline (90 mg/kg, po) is included in each assay. Statistical analysis of the data is done using the poolt program.

histamine [2] = assay: rat dermal vascular permeability test (mediator release model), histamine challenge; settings: topical, 100 mg/kg
[3] = peroral, serotonin 1 ug/ml intradermal
[4] = intraperitoneal administration, serotonin 1 ug/ml intradermal
[5] = intraperitoneal administration, bradykinin 10 ug/ml intradermal

Row | Structure (SMILES) | % Inhibition of Mediator Release, Serotonin (serotonin; [3]) | % Inhibition of Mediator Release, Histamine (histamine [1]; peroral) | % Inhibition of Mediator Release, Bradykinin (bradykinin; topical) | Active Anaphylaxis % Inhibition (edema) | other results
1 | O=C1COC(Nc2ccc(Cl)cc2)=C1C(=O)Nc1ccc(Cl)cc1 [NHC6 H4 Cl4 H H C6 H4 Cl4] | 14% | 15% | 44% |  | 
2 | CCOC(=O)C1=C(O)COC1=Nc1ccc(C(C)=O)cc1 [K C6 H4 COCH3 --4 C2 H5] |  |  |  | 56% | % Inhibition of Mediator Release, Serotonin (serotonin; [4]): 79%; % Inhibition of Mediator Release, Histamine (histamine [1]; intraperitoneal administration): 88%; % Inhibition of Mediator Release, Bradykinin (bradykinin; [5]): 86%
3 | O=C(O)C1=C(Nc2cccc(C(F)(F)F)c2)OCC1=O [OH H H C6 H4 CF3 --3] | 40% | 26% | 54% | 45% | 
4 | CCOC(=O)C1=C(N[C@@H]2C[C@H]2c2ccccc2)OCC1=O (relative stereo) | 57% | 35% | 59% |  | 
5 | CCOC(=O)C1=C(O)COC1=Nc1cccc([N+](=O)[O-])c1 [K C6 H4 NO2 --3 C2 H5] |  |  |  | 37% | % Inhibition of Mediator Release, Serotonin (serotonin; [4]): 45%; % Inhibition of Mediator Release, Histamine (histamine [1]; intraperitoneal administration): 49%; % Inhibition of Mediator Release, Bradykinin (bradykinin; [5]): 67%
6 | COc1ccc(NC(=O)C2=C(Nc3ccc(OC)cc3)OCC2=O)cc1 [NH6 H4 OCH3 4 H H C6 H4 OCH3 4] |  |  | 39% |  | % Inhibition of Mediator Release, Serotonin (serotonin; topical): 13%; % Inhibition of Mediator Release, Histamine (histamine [2]): 8%
7 | COc1ccccc1NC(=O)C1=C(Nc2ccccc2OC)OCC1=O [NHC6 H4 OCH3 2 H H C6 H4 OCH3 2] | 18% | 1% | 39% |  | 
8 | CCOC(=O)C1=C(O)COC1=Nc1ccccc1OC [K C6 H4 OCH3 --2 C2 H5] |  |  |  | 58% | 
9 | O=C([O-])C1=C(Nc2ccccc2)OCC1=O.[Na+] [O^- Na^+ H H C6 H5, 4,5-dihydro-4-oxo-2-phenylamino-3-furancarboxylic acid sodium salt] |  |  |  | 17% | 
10 | CCOC(=O)C1=C(Nc2ccccc2)OC(C)(C)C1=O [OC2 H5 CH3 CH3 C6 H5, ethyl 4,5-dihydro-5,5-dimethyl-4-oxo-2-(phenylamino)-3-furancarboxylate] |  |  |  | 16% | 
11 | O=C(O)C1=C(N[C@@H]2C[C@H]2c2ccc(Cl)cc2)OCC1=O (relative stereo) | 54% | 56% | 71% | 6% | 
12 | O=C(O)C1=C(Nc2cccc([N+](=O)[O-])c2)OCC1=O [OH H H C6 H4 NO2 --3] | 18% | 16% | 48% |  | Active Anaphylaxis % Inhibition (footnote 1: edema increased) (edema; edema increased): 39%
13 | O=C1COC(Nc2ccccc2)=C1C(=O)Nc1ccccc1 [NHC6 H5 H H C6 H5, 4,5-Dihydro-4-oxo-N-phenyl-2-(phenylamino)-3-furancarboxamide] |  |  |  | 46% | 
14 | Cc1ccccc1NC(=O)C1=C(Nc2ccccc2C)OCC1=O [NHC6 H4 CH3 2 H H C6 H4 CH3 2] | 9% | 0% | 7% |  | 
15 | O=C(O)C1=C(N[C@@H]2C[C@H]2c2ccccc2)OCC1=O (relative stereo) |  |  |  | 22% | 
16 | COc1ccccc1NC1=C(C(=O)O)C(=O)CO1 [OH H H C6 H4 OCH3 --2] | 30% | 27% | 38% | 45% | 
17 | CCOC(=O)C1=C(O)COC1=Nc1ccc(Br)cc1 [K C6 H4 Br--4 C2 H5] |  |  |  | 38% | % Inhibition of Mediator Release, Serotonin (serotonin; [4]): 46%; % Inhibition of Mediator Release, Histamine (histamine [1]; intraperitoneal administration): 65%; % Inhibition of Mediator Release, Bradykinin (bradykinin; [5]): 69%
18 | O=C(O)C1=C(Nc2ccc(C(=O)O)cc2)OCC1=O [OH H H C6 H4 CO2 H--4, 2-[(4-Carboxyphenyl)amino]-4,5-dihydro-4-oxo-3-furancarboxylic Acid] | 63% | 64% | 64% | 52% | 
19 | O=C(O)C1=C(Nc2ccc(Br)cc2)OCC1=O [OH H H C6 H4 Br--4] | 39% | 45% | 68% | 27% | 
20 | CCOC(=O)C1=C(Nc2cccc(C(F)(F)F)c2)OCC1=O [OC2 H5 H H C6 H4 CF3 --3] | 9.7% | 4.1% | 40% |  | 
21 | Cc1ccc([C@@H]2C[C@H]2NC2=C(C(=O)O)C(=O)CO2)cc1 (relative stereo) | 100% | 100% | 100% | 45% | 
22 | CC1(C)OC(Nc2ccccc2)=C(C(=O)O)C1=O [OH CH3 CH3 C6 H5] |  |  |  | 44% | 
23 | CCOC(=O)C1=C(N[C@@H]2C[C@H]2c2ccc(Cl)cc2)OCC1=O (relative stereo) | 51% | 60% | 76% |  | 
24 | CCOC(=O)C1=C(Nc2ccc(C(=O)OCC)cc2)OCC1=O [OC2 H5 H H C6 H4 CO2 C2 H5 --4, ethyl 2-[[4-(ethoxycarbonyl)phenyl]-amino]-4,5-dihydro-4-oxo-3-furancarboxylate] | 18% | 21% | 21% |  | 
25 | CCOC(=O)C1=C(Nc2ccc(Cl)cc2)OCC1=O [OC2 H5 H H C6 H4 Cl--4] | 6.6% | 3.3% | 9.5% |  | 
26 | CC1OC(Nc2ccccc2)=C(C(=O)O)C1=O (stereo not drawn) [OH H CH3 C6 H5] |  |  |  | 60% | % Inhibition of Mediator Release, Serotonin (serotonin; [4]): 37%; % Inhibition of Mediator Release, Histamine (histamine [1]; intraperitoneal administration): 40%; % Inhibition of Mediator Release, Bradykinin (bradykinin; [5]): 46%
27 | CCOC(=O)C1=C(NC)OCC1=O [OC2 H5 H H CH3] |  |  |  |  | % Inhibition of Mediator Release, Serotonin (serotonin; [4]): 38%; % Inhibition of Mediator Release, Histamine (histamine [1]; intraperitoneal administration): 50%; % Inhibition of Mediator Release, Bradykinin (bradykinin; [5]): 25%
28 | CCOC(=O)C1=C(O)COC1=Nc1cccc(C)c1 [K C6 H4 CH3 --3 C2 H5] |  |  |  |  | % Inhibition of Mediator Release, Serotonin (serotonin; [4]): 75%; % Inhibition of Mediator Release, Histamine (histamine [1]; intraperitoneal administration): 71%; % Inhibition of Mediator Release, Bradykinin (bradykinin; [5]): 70%
29 | CCOC(=O)C1=C(O)COC1=Nc1ccccc1 [K C6 H5 C2 H5, Potassium 2,5-dihydro-3-ethoxycarbonyl-2-(phenylimino)-4-furanyloxide] |  |  |  | 49% | % Inhibition of Mediator Release, Serotonin (serotonin; [4]): 42%; % Inhibition of Mediator Release, Histamine (histamine [1]; intraperitoneal administration): 31%; % Inhibition of Mediator Release, Bradykinin (bradykinin; [5]): 51%
